In experiment [1] the target is T1, Pfs16 (Plasmodium falciparum, UniProt Q6ZMA7).
T1 construct: native full-length protein in stage V gametocytes or their Triton X-100 lysate; 157 residues, 16 kDa, one TM domain
T1 sequence (Q6ZMA7 26-157): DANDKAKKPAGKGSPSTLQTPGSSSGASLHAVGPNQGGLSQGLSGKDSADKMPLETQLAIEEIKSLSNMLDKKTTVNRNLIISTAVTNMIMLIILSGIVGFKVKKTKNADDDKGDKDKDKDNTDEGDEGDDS
Nature of the experiment: CETSA melt curve with immunoblot. To be noted: 100 µM compound. Format: biochemical. A general note: In western blotting, separated proteins are transferred to a membrane and probed.

Experiment [2] deals with T1, Pfs16. Nature of the experiment: photoaffinity labelling of live gametocytes, pulldown, TMT LC-MS/MS and immunoblot. The experiment is classed as cell-based. Particulars: covalent (aryl azide photo-crosslink, 254 nm); 2.5 to 10 µM probe, 37 °C.

Consider 3 compounds from article PMC9934914, “A novel class of sulphonamides potently block malaria transmission by targeting a Plasmodium vacuole membrane protein” (Disease Models & Mechanisms, 2023).

On to `O=S(=O)(NCC1(O)CCOc2ccccc21)c1cccc(Br)c1` (single isomer, unassigned; (-)) [(−)-DDD01028076], for which, on Pfs16 [1] (pH 7.5, stage V gametocyte lysate), the Tm shift result is “A shift in the Pfs16 melting curve was also evident in the presence of (−)-DDD01028076”.
For `O=S(=O)(NCC1(O)CCOc2ccccc21)c1ccc(Br)s1` (stereo not drawn) [DDD01035881], the Tm shift result on Pfs16 [1] (pH 7.5, activated stage V gametocyte lysate, also isothermal dose response at 78.4 °C, 1 nM to 100 µM) is “DDD01035881 treatment clearly resulted in a positive shift in the Pfs16 melting curve”.
On to `C#Cc1ccc2c(c1)C(O)(CNS(=O)(=O)c1cccc(N=[N+]=[N-])c1)CCO2` (stereo not drawn) [compound 2, probe 2], for which the “photoaffinity labelling of live gametocytes, pulldown, TMT LC-MS/MS and immunobl” value on Pfs16 [2] is listed as “a dose-dependent pulldown of Pfs16 was clearly observed”.
